Test results from the NIST ThermoML archive (doi:10.1016/j.jct.2013.09.015).

Legend:
[1] = 298.15 K, 101.33 kPa, Liquid; for speed of sound: Sing-around technique in a fixed-path interferometer; for mass density: Vibrating tube method
[2] = excess molar enthalpy (molar enthalpy of mixing); xn = mol fraction of the nth substance listed; settings: 298.15 K, 101 kPa, Liquid, Calvet calorimetry

CCn1cc[n+](C)c1.F[B-](F)(F)F [1-ethyl-3-methylimidazolium tetrafluoroborate]
[1]
Settings | mass density [kg/m3] | speed of sound [m/s]
– | 1279.91 | 1619.4

CCn1cc[n+](C)c1.F[B-](F)(F)F [1-ethyl-3-methylimidazolium tetrafluoroborate] + O
[2]
Settings | excess molar enthalpy [kcal/mol]
x1 = 0.1136 | 0.0374
x1 = 0.1678 | 0.0537
x1 = 0.2249 | 0.0693
x1 = 0.2734 | 0.0812
x1 = 0.331 | 0.0934
x1 = 0.3615 | 0.0989
x1 = 0.4325 | 0.109
x1 = 0.4709 | 0.112
x1 = 0.5314 | 0.115
x1 = 0.5722 | 0.115
x1 = 0.6291 | 0.113
x1 = 0.6685 | 0.109
x1 = 0.7311 | 0.0986
x1 = 0.771 | 0.0898
x1 = 0.8324 | 0.0724
x1 = 0.8694 | 0.0596
x1 = 0.9103 | 0.0434
x1 = 0.9311 | 0.0343

O=C1CCCN1 [2-pyrrolidinone]
[1]
Settings | mass density [kg/m3] | speed of sound [m/s]
– | 1107.15 | 1633.9

O=C1CCCN1 [2-pyrrolidinone] + O
[2]
Settings | excess molar enthalpy [kcal/mol]
x1 = 0.1013 | -0.0589
x1 = 0.136 | -0.0776
x1 = 0.1745 | -0.0978
x1 = 0.2319 | -0.125
x1 = 0.2775 | -0.145
x1 = 0.3351 | -0.166
x1 = 0.3813 | -0.18
x1 = 0.4343 | -0.193
x1 = 0.4783 | -0.2
x1 = 0.5401 | -0.205
x1 = 0.5713 | -0.206
x1 = 0.6264 | -0.201
x1 = 0.6771 | -0.192
x1 = 0.7314 | -0.177
x1 = 0.7693 | -0.162
x1 = 0.8326 | -0.13
x1 = 0.8951 | -0.0899
x1 = 0.9204 | -0.0708

O=C1CCCN1 [2-pyrrolidinone] + c1ccncc1
[2]
Settings | excess molar enthalpy [kcal/mol]
x1 = 0.1213 | 0.0217
x1 = 0.1715 | 0.029
x1 = 0.2336 | 0.0366
x1 = 0.2615 | 0.0394
x1 = 0.3255 | 0.0446
x1 = 0.3701 | 0.0471
x1 = 0.4291 | 0.0489
x1 = 0.4711 | 0.0493
x1 = 0.5256 | 0.0485
x1 = 0.5713 | 0.0469
x1 = 0.6364 | 0.0431
x1 = 0.6716 | 0.0404
x1 = 0.7315 | 0.0348
x1 = 0.7619 | 0.0315
x1 = 0.8311 | 0.0232
x1 = 0.8751 | 0.0174
x1 = 0.9204 | 0.0112
x1 = 0.9344 | 0.00927

CN1CCCC1=O [N-methylpyrrolidone]
[1]
Settings | mass density [kg/m3] | speed of sound [m/s]
– | 1028.23 | 1546

c1ccncc1 [pyridine]
[1]
Settings | mass density [kg/m3] | speed of sound [m/s]
– | 978.252 | 1417.8

c1ccncc1 [pyridine] + CN1CCCC1=O
[2]
Settings | excess molar enthalpy [kcal/mol]
x2 = 0.0911 | -0.0363
x2 = 0.1426 | -0.052
x2 = 0.1985 | -0.0669
x2 = 0.2312 | -0.0755
x2 = 0.2854 | -0.086
x2 = 0.312 | -0.0903
x2 = 0.3789 | -0.097
x2 = 0.443 | -0.103
x2 = 0.4995 | -0.104
x2 = 0.5478 | -0.102
x2 = 0.5851 | -0.1
x2 = 0.6359 | -0.0959
x2 = 0.6982 | -0.0895
x2 = 0.725 | -0.0852
x2 = 0.7732 | -0.0742
x2 = 0.8489 | -0.0552
x2 = 0.8923 | -0.0427
x2 = 0.9156 | -0.0345
